Measured values from patent US20200093103A1, “BREEDING WATER FOR ANGUILLIFORMES AND METHOD FOR REARING ANGUILLIFORMES” (SHIN NIPPON BIOMEDICAL LABORATORIES, LTD., priority 2016, published 2020).

Tested on: Anguilla japonica leptocephali
Assay: Induction of Anguilla japonica metamorphosis by T4 treatment in 23° C. breeding water
Type: in vivo
Parameters: key: L: During life, no characteristics of metamorphosis seen.; Stage 1: Starting phase of metamorphosis. The rostral end is rounded, and intestinal degeneration starts.; Stage 2: Peak phase of metamorphosis. Intestinal degeneration becomes pronounced.; Stage 3: Late phase of metamorphosis.; Stage 4: Pre-glass eel stage. Almost the eel form, but the body height still remains
Description: Stage 1: Starting phase of metamorphosis. The rostral end is rounded, and intestinal degeneration starts.
Stage 2: Peak phase of metamorphosis. Intestinal degeneration becomes pronounced. In the second half, the anus reaches to near the last vertical blood vessel (VBV last).
Stage 3: Late phase of metamorphosis. The preanal length (PAL) becomes equal to or shorter than the last vertical blood vessel length (VBV last Length) (PAL VBV last Length). The body height is apparently low.
Stage 4: Pre-glass eel stage. Almost the eel form, but the body height still remains. Melanophores on the body surface or endogenous melanophores are not yet seen.
Elver stage: Juvenile stage. Food intake can be identified.
A thyroid hormone (e.g., thyroxine (T4)) is adjusted to 50 to 100 mM in a 1- to 2-mL volume messflask. As a solvent, known solvents (water, alcohol) can be used. Ethanol is preferably used as the solvent.
For example, using ethanol as a solvent, T4 adjusted to 50 mM is diluted 500-fold, 5,000-fold, and 50,000-fold, respectively, and adjusted to […], 1 μM, and 100 nM. A feed can be prepared in this manner.
Artificial seawater is added to a breeding vessel, and 1/1000 of the […] T4 is added to prepare […] T4 breeding water.
Half of the breeding water is replaced every two days with breeding water of the same concentration. In the case where the concentration is changed, for example, in the case of changing from 10 nM to 2 nM, 80% to the breeding water is removed, and unadjusted artificial seawater is newly added to make 1 L.
Leptocephali visually considered to have reached a total length of 40 mm (or may be 30 mm to 50 mm, may be 35 mm to 45 mm, or may also be 35 mm or more, 40 mm or more, or 45 mm or more) are selected, anesthetized with 2-phenoxyethanol, and then photographed, and the total length of each larva is measured using an image analyzing device.
The larvae are placed in 10 nM T4 breeding water and then placed in an incubator set at 23° C., and breeding is started. In first one week, observation is performed every two days, and half of the 10 nM T4 breeding water is replaced each time. The average amount of thyroid hormone in the breeding water in stage 1 is 1 nM to 100 nM, for example, and may also be 3 nM to 30 nM, or 5 nM to 20 nM.
For larvae visually judged to have reached the second half of stage 2, the concentration of the breeding water is changed. The breeding water is diluted 5-fold or 10-fold and adjusted to 2 nM or 1 nM T4, and breeding is continued. The average amount of thyroid hormone in the breeding water in stage 2 may be, as compared with the breeding water of stage 1, diluted 2-fold to 20-fold, diluted 3 to 15-fold, or diluted 5 to 10-fold as described above. The average amount of thyroid hormone in the breeding water in stage 2 is 0.1 nM to 20 nM, for example, and may also be 0.5 nM to 10 nM, 1 nM to 5 nM, or 1 nM to 2 nM.
For larvae visually judged to have reached stage 3, the breeding water is quickly changed 0.2 nM T4 breeding water, which is a 5-fold dilution of 1 nM T4 breeding water, and further changed to 0.1 nM T4 breeding water on the following day. […] Also, in larvae whose anus position has not reached the last vertical hemal spine, when they are judged to be on the brink of stage 3, the concentration is changed as above. The average amount of thyroid hormone in the breeding water in stage 3 may be, as compared with the breeding water of stage 2, diluted 2-fold to 50-fold, diluted 3 to 15-fold, diluted 4 to 6-fold, or diluted 5-fold as described above. The average amount of thyroid hormone in the breeding water in stage 3 is 0.01 nM to 2 nM, for example, and may also be 0.05 nM to 1 nM, 0.1 nM to 0.5 nM, or 0.1 nM to 0.2 nM. […] That is, the concentration may be changed such that the thyroid hormone becomes undetectable in the breeding water in the course of stage 3.
In stage 3, breeding is continuously performed in the 0.1 nM T4 breeding water. […]

Question: How did the metamorphosis stage (individual Exp. 5-6, 174 days old, total length 34.5 mm at start, c3 onward = treatment days 1,3,5,7,8,9,10,11,12,13,14,15,16,17,18,20,22, T4 (nM) 10,10,10,10,10,10,10,2,1,1,0.2,0.1,0.1,0.1,0.1,0.1,0.1, treatment day 11, T4 2 nM) turn out when N[C@@H](Cc1cc(I)c(Oc2cc(I)c(O)c(I)c2)c(I)c1)C(=O)O [T4, thyroxine] was run?
Answer: Its metamorphosis stage is 2.

Question: What about the metamorphosis stage (individual Exp. 5-6, 174 days old, total length 34.5 mm at start, c3 onward = treatment days 1,3,5,7,8,9,10,11,12,13,14,15,16,17,18,20,22, T4 (nM) 10,10,10,10,10,10,10,2,1,1,0.2,0.1,0.1,0.1,0.1,0.1,0.1, treatment day 12, T4 1 nM) of the same compound?
Answer: The metamorphosis stage was 2.

Question: And the metamorphosis stage (individual Exp. 5-6, 174 days old, total length 34.5 mm at start, c3 onward = treatment days 1,3,5,7,8,9,10,11,12,13,14,15,16,17,18,20,22, T4 (nM) 10,10,10,10,10,10,10,2,1,1,0.2,0.1,0.1,0.1,0.1,0.1,0.1, treatment day 13, T4 1 nM)?
Answer: The metamorphosis stage was 2.

Question: What about the metamorphosis stage (individual Exp. 5-6, 174 days old, total length 34.5 mm at start, c3 onward = treatment days 1,3,5,7,8,9,10,11,12,13,14,15,16,17,18,20,22, T4 (nM) 10,10,10,10,10,10,10,2,1,1,0.2,0.1,0.1,0.1,0.1,0.1,0.1, treatment day 14, T4 0.2 nM) of the same compound?
Answer: Its metamorphosis stage is 3.

Question: What about the metamorphosis stage (individual Exp. 5-6, 174 days old, total length 34.5 mm at start, c3 onward = treatment days 1,3,5,7,8,9,10,11,12,13,14,15,16,17,18,20,22, T4 (nM) 10,10,10,10,10,10,10,2,1,1,0.2,0.1,0.1,0.1,0.1,0.1,0.1, treatment day 15, T4 0.1 nM) of the same compound?
Answer: Its metamorphosis stage is 3.

Question: And the metamorphosis stage (individual Exp. 5-6, 174 days old, total length 34.5 mm at start, c3 onward = treatment days 1,3,5,7,8,9,10,11,12,13,14,15,16,17,18,20,22, T4 (nM) 10,10,10,10,10,10,10,2,1,1,0.2,0.1,0.1,0.1,0.1,0.1,0.1, treatment day 16, T4 0.1 nM)?
Answer: The metamorphosis stage was 3.

Question: And the metamorphosis stage (individual Exp. 5-6, 174 days old, total length 34.5 mm at start, c3 onward = treatment days 1,3,5,7,8,9,10,11,12,13,14,15,16,17,18,20,22, T4 (nM) 10,10,10,10,10,10,10,2,1,1,0.2,0.1,0.1,0.1,0.1,0.1,0.1, treatment day 17, T4 0.1 nM)?
Answer: The metamorphosis stage was 3.

Question: And the metamorphosis stage (individual Exp. 5-6, 174 days old, total length 34.5 mm at start, c3 onward = treatment days 1,3,5,7,8,9,10,11,12,13,14,15,16,17,18,20,22, T4 (nM) 10,10,10,10,10,10,10,2,1,1,0.2,0.1,0.1,0.1,0.1,0.1,0.1, treatment day 18, T4 0.1 nM)?
Answer: Its metamorphosis stage is 3.

Question: What about the metamorphosis stage (individual Exp. 5-6, 174 days old, total length 34.5 mm at start, c3 onward = treatment days 1,3,5,7,8,9,10,11,12,13,14,15,16,17,18,20,22, T4 (nM) 10,10,10,10,10,10,10,2,1,1,0.2,0.1,0.1,0.1,0.1,0.1,0.1, treatment day 20, T4 0.1 nM) of the same compound?
Answer: The metamorphosis stage was 3.

Question: What about the metamorphosis stage (individual Exp. 5-6, 174 days old, total length 34.5 mm at start, c3 onward = treatment days 1,3,5,7,8,9,10,11,12,13,14,15,16,17,18,20,22, T4 (nM) 10,10,10,10,10,10,10,2,1,1,0.2,0.1,0.1,0.1,0.1,0.1,0.1, treatment day 22, T4 0.1 nM) of the same compound?
Answer: Its metamorphosis stage is 4.

Question: What about the metamorphosis stage (individual Exp. 6-1, 129 days old, total length 40.6 mm at start, c3 onward = treatment days 1,3,5,7,9,10,11,12,13,14,15,16,17,18,19, T4 (nM) 10,10,10,10,2,1,0.2,0.1,0.1,0.1,0.1,0.1,0.1,0.1,0.1, treatment day 1) of the same compound?
Answer: The metamorphosis stage was “L”.

Question: And the metamorphosis stage (individual Exp. 6-1, 129 days old, total length 40.6 mm at start, c3 onward = treatment days 1,3,5,7,9,10,11,12,13,14,15,16,17,18,19, T4 (nM) 10,10,10,10,2,1,0.2,0.1,0.1,0.1,0.1,0.1,0.1,0.1,0.1, treatment day 3)?
Answer: Its metamorphosis stage is 1.

Question: What about the metamorphosis stage (individual Exp. 6-1, 129 days old, total length 40.6 mm at start, c3 onward = treatment days 1,3,5,7,9,10,11,12,13,14,15,16,17,18,19, T4 (nM) 10,10,10,10,2,1,0.2,0.1,0.1,0.1,0.1,0.1,0.1,0.1,0.1, treatment day 5) of the same compound?
Answer: Its metamorphosis stage is 1.

Question: What about the metamorphosis stage (individual Exp. 6-1, 129 days old, total length 40.6 mm at start, c3 onward = treatment days 1,3,5,7,9,10,11,12,13,14,15,16,17,18,19, T4 (nM) 10,10,10,10,2,1,0.2,0.1,0.1,0.1,0.1,0.1,0.1,0.1,0.1, treatment day 7) of the same compound?
Answer: The metamorphosis stage was 2.

Question: And the metamorphosis stage (individual Exp. 6-1, 129 days old, total length 40.6 mm at start, c3 onward = treatment days 1,3,5,7,9,10,11,12,13,14,15,16,17,18,19, T4 (nM) 10,10,10,10,2,1,0.2,0.1,0.1,0.1,0.1,0.1,0.1,0.1,0.1, treatment day 9)?
Answer: Its metamorphosis stage is 2.

Question: What about the metamorphosis stage (individual Exp. 6-1, 129 days old, total length 40.6 mm at start, c3 onward = treatment days 1,3,5,7,9,10,11,12,13,14,15,16,17,18,19, T4 (nM) 10,10,10,10,2,1,0.2,0.1,0.1,0.1,0.1,0.1,0.1,0.1,0.1, treatment day 10) of the same compound?
Answer: The metamorphosis stage was 2.

Question: And the metamorphosis stage (individual Exp. 6-1, 129 days old, total length 40.6 mm at start, c3 onward = treatment days 1,3,5,7,9,10,11,12,13,14,15,16,17,18,19, T4 (nM) 10,10,10,10,2,1,0.2,0.1,0.1,0.1,0.1,0.1,0.1,0.1,0.1, treatment day 11)?
Answer: Its metamorphosis stage is 3.

Question: What about the metamorphosis stage (individual Exp. 6-1, 129 days old, total length 40.6 mm at start, c3 onward = treatment days 1,3,5,7,9,10,11,12,13,14,15,16,17,18,19, T4 (nM) 10,10,10,10,2,1,0.2,0.1,0.1,0.1,0.1,0.1,0.1,0.1,0.1, treatment day 12) of the same compound?
Answer: Its metamorphosis stage is 3.

Question: And the metamorphosis stage (individual Exp. 6-1, 129 days old, total length 40.6 mm at start, c3 onward = treatment days 1,3,5,7,9,10,11,12,13,14,15,16,17,18,19, T4 (nM) 10,10,10,10,2,1,0.2,0.1,0.1,0.1,0.1,0.1,0.1,0.1,0.1, treatment day 13)?
Answer: The metamorphosis stage was 3.

Question: What about the metamorphosis stage (individual Exp. 6-1, 129 days old, total length 40.6 mm at start, c3 onward = treatment days 1,3,5,7,9,10,11,12,13,14,15,16,17,18,19, T4 (nM) 10,10,10,10,2,1,0.2,0.1,0.1,0.1,0.1,0.1,0.1,0.1,0.1, treatment day 14) of the same compound?
Answer: The metamorphosis stage was 3.

Question: What about the metamorphosis stage (individual Exp. 6-1, 129 days old, total length 40.6 mm at start, c3 onward = treatment days 1,3,5,7,9,10,11,12,13,14,15,16,17,18,19, T4 (nM) 10,10,10,10,2,1,0.2,0.1,0.1,0.1,0.1,0.1,0.1,0.1,0.1, treatment day 15) of the same compound?
Answer: The metamorphosis stage was 3.

Question: What about the metamorphosis stage (individual Exp. 6-1, 129 days old, total length 40.6 mm at start, c3 onward = treatment days 1,3,5,7,9,10,11,12,13,14,15,16,17,18,19, T4 (nM) 10,10,10,10,2,1,0.2,0.1,0.1,0.1,0.1,0.1,0.1,0.1,0.1, treatment day 16) of the same compound?
Answer: Its metamorphosis stage is 3.

Question: What about the metamorphosis stage (individual Exp. 6-1, 129 days old, total length 40.6 mm at start, c3 onward = treatment days 1,3,5,7,9,10,11,12,13,14,15,16,17,18,19, T4 (nM) 10,10,10,10,2,1,0.2,0.1,0.1,0.1,0.1,0.1,0.1,0.1,0.1, treatment day 17) of the same compound?
Answer: Its metamorphosis stage is 3.

Question: And the metamorphosis stage (individual Exp. 6-1, 129 days old, total length 40.6 mm at start, c3 onward = treatment days 1,3,5,7,9,10,11,12,13,14,15,16,17,18,19, T4 (nM) 10,10,10,10,2,1,0.2,0.1,0.1,0.1,0.1,0.1,0.1,0.1,0.1, treatment day 18)?
Answer: The metamorphosis stage was 3.

Question: What about the metamorphosis stage (individual Exp. 6-1, 129 days old, total length 40.6 mm at start, c3 onward = treatment days 1,3,5,7,9,10,11,12,13,14,15,16,17,18,19, T4 (nM) 10,10,10,10,2,1,0.2,0.1,0.1,0.1,0.1,0.1,0.1,0.1,0.1, treatment day 19) of the same compound?
Answer: The metamorphosis stage was 4.
